Test results from paper PMC11056991, “Promising Anticancer Prodrugs Based on Pt(IV) Complexes with Bis-organosilane Ligands in Axial Positions” (Journal of Medicinal Chemistry, 2024).
Where two headings read alike, the source gives them in different places.

Key:
[1] = system: HCT 116 cells; assay: Trypan blue exclusion test; assay type: cell-based, human; details: HCT 116, 0.5 μM, 2 days
Procedure: HCT 116 cells were harvested by trypsinization followed by centrifugation at 500g for 5 min. The cell pellet was resuspended in 1 mL of PBS. Equal volumes of trypan blue (Bio-Rad cat. no. 1450021) 0.4% and cell suspension were mixed and incubated for 1–3 min at room temperature, and cell counting was carried out using a TC20 Automated Cell Counter (Bio-Rad cat. no. 1450102). The percentage of viable cells was calculated by dividing the number of viable cells per milliliter by the number total of cells per milliliter) × 100. Representative images were acquired using a Zeis light microscope with a 20× objective.

[2] = 195Pt NMR reduction kinetics with ascorbic acid; assay type: physicochemical; details: AsA 4:1 excess, DMSO/D2O (4:1), 37 °C, 2, 6, 24 h
Procedure: AsA presents an intracellular concentration of 1 mM, whereas the GSH concentration is 2 mM.[38] This reactivity was monitored by ^195Pt NMR at different times. Thus, by analyzing the different regions where the signals of Pt(II)/Pt(IV) species appear, it is possible to identify and assign the different compounds formed during the reaction. In most cases, the regions where the Pt(II) and Pt(IV) signals appear are separated by more than 3000 ppm.[33]
We first studied the reduction of the complexes against AsA, monitoring the reaction in both the Pt(IV) and Pt(II) region at 2, 6, and 24 h. In both cases, we used a mixture of DMSO/D2O (4:1) to reach the solubilization of the complexes and the AsA. In the Pt(IV)-biSi-1 reduction experiment, during the first hour, only the signal at 1210 ppm appeared in the Pt(IV) region (Figure S13A), which corresponds to the original complex, and no signal was detected in the Pt(II) region.
Each solution was then slowly added to 100 μL of a solution of the corresponding reducing agent (AsA or GSH in an excess of 4:1 against each complex) in D2O at 37 °C. After that, 100 μL of DMSO-d6 was added carefully to each mixture, reaching a final concentration of […] (DMSO-d6/D2O). All of these mixtures were performed using a thermoshaker. Each sample was monitored by ^195Pt NMR at 2, 6, and 24 h.

[3] = system: HCT 116 cancer cells; details: data not shown
Procedure: Cell were trypsinized, centrifuged at 500g for 5 min, resuspended in PBS, and stained with 7-aminoactinomycin D (7AAD, Santa Cruz Biotechnology), a DNA intercalating dye excluded from viable cells due to membrane impermeability. The 7AAD was excited at 546 nm and analyzed at 656 nm. Only apoptotic and necrotic cells are stained by these dyes. After incubation for 50 min in the dark at 37 °C, the cells were analyzed by flow cytometry (CytoFlex, Beckman Coulter). The percentages of cells stained with or without dyes were analyzed using the CytExpert Software (Beckman Coulter).

[4] = system: HCT 116 human colon cancer cells; assay: MTT cell viability assay, HCT 116; assay type: cell-based; details: for IC50: 48 h
Procedure: (§1) HIEC6 human healthy intestinal cells and HCT 116 and HT-29 human colon cancer cells were supplied by ATCC. Colon cancer cells were cultured in Dulbecco’s modified Eagle’s medium (DMEM) for HCT 116 and HT-29 supplemented with fetal bovine serum (10%). HIEC6 cells were cultured in Opti-MEM supplemented with fetal bovine serum (4%), HEPES (20 mM), glutamine (10 mM), and epidermal growth factor (10 ng/mL). Cells were maintained at 37 °C in a humidified atmosphere containing 5% CO2. Cells were seeded at 30% confluence in DMEM for HCT 116 and in Opti-MEM for HIEC6; after cell adhesion, HIEC6 cells were cultured in DMEM for 24h before being treated. All cells were treated with the indicated components at concentrations of 0.25–50 μM and incubated for 1–5 days as specified.
(§2) The MTT assay relies on a colorimetric reaction based on the capacity of living cells to reduce MTT to formazan and change the color to purple, which is easily measured by colorimetry. This assay estimates the cellular viability after the indicated treatments. Cells were treated with MTT (1:10 in culture medium) and incubated at 37 °C for 3 h for HCT 116 and HT-29 or 6 h for HIEC6. After removal of the medium, the formazan was resuspended in DMSO, transferred to p96 plates, and analyzed by a SpectraFLUOR (Tecan) at 542 nm. In all cases, viability was measured in duplicates of each point in three independent experiments.

[5] = system: HIEC6 human healthy intestinal cells; assay: MTT cell viability assay, HIEC6; assay type: cell-based; details: for IC50: 48 h
Procedure: as §1, §2

[6] = Stability in DMEM by 195Pt NMR; assay type: physicochemical; details: DMSO-d6/DMEM 1:4, 37 °C, 0, 24, 48, 120 h
Description: We then decided to evaluate the stability of the two Pt(IV) complexes in the medium (DMEM) used to carry out the in vitro experiments, monitoring their kinetics by ^195Pt NMR at different times to evaluate the possible species formed over time. DMEM is supplemented with proteins and other molecules essential for cell growth (Experimental Section). Thus, similar to the reduction assays, we analyzed the Pt(II)/Pt(IV) region where the expected species appear. […] Both Pt(IV)/Pt(II) signals disappeared after 48 h, most likely again because of the binding of the complex to the proteins.
To each solution was then slowly and carefully added 300 μL of DMEM to avoid the precipitation of the complex, reaching a final concentration of 1:4 (DMSO-d6/DMEM). All these mixtures were performed using a thermoshaker. Each sample was monitored by ^195Pt NMR at 0, 24, 48, and 120 h.

[7] = system: HT-29 human colon cancer cells; details: MTT, Figure S14E
Procedure: Cells were maintained at 37 °C in a humidified atmosphere containing 5% CO2.

[8] = system: histone gH2Ax foci at double-strand DNA breaks in HCT 116 cells; assay: Immunofluorescence of histone gH2Ax DNA damage foci; assay type: cell-based, human; details: HCT 116, 0.5 μM, 48 h
Procedure: Confocal imaging of the DNA damage response was followed by immunofluorescence of histone gH2Ax foci at double-strand DNA breaks (DSB) (Figure 4A). […] However, none of the Pt(IV) prodrugs were able to increase p53 levels even at concentrations higher than those needed to reduce cell viability.
Cells in coverslips were washed three times and fixed with 4% paraformaldehyde in PBS (pH 7.4) for 10 min, washed again, permeabilized (PBS [pH7.4], 0.5% Triton X-100, 0.2% BSA) for 5 min, blocked (PBS [pH7,4], 0,05% Triton X-100, 5% BSA) for 1 h at room temperature, and incubated with primary antibody overnight at 4 °C. After three washes (5 min), cells were incubated with secondary antibody for 1 h at room temperature, and the nuclei were stained with 4,6-diamidino-2-phenylindole (DAPI, 1:10,000, Invitrogen) for 10 min. Slides were mounted, and images were acquired using an FV3000 confocal microscope (Olympus) with a 63× objective. The antibodies rabbit monoclonal anti-Histone H2A.X (D17A3) (dilution 1:400) and mouse monoclonal anti-Lamin A/C (4C11) (dilution 1:400) were purchased from Cell Signaling (Danvers, Massachusetts, USA). Donkey Anti-Rabbit-Alexa Fluor 488 (dilution 1:500) and Donkey Anti-Mouse-Alexa Fluor 594 (dilution 1:500) were purchased from Invitrogen (Barcelona, Spain).

[9] = MTT, 5 uM, 2 days, (final complexes, Figure 3B)
[10] = MTT, second (last) column of this head

With `CC(C)N.CC(C)N.CCO[Si](CCCNC(=O)[O][Pt]([Cl])([Cl])[O]C(=O)NCCC[Si](OCC)(OCC)OCC)(OCC)OCC` [Pt(IV)-biSi-2, cis-Dichloro(diisopropylamine)-trans-[3-(triethoxysilyl)propylcarbamate]platinum(IV)] the “Reduction of viability by trypan blue staining” value [1] was “approximately 60%”, the “Reduction of the Pt(IV) complex by AsA (Pt(IV) signal in 195Pt NMR)” value [2] was “no signals were observed in the Pt(IV) region after reaction for 2 h” and the “Cytotoxicity by flow cytometry, HCT 116” value [3] was “stronger effect”. For the same compound, the “Fold greater cytotoxicity than cisplatin, HCT 116” value ([4]; 5 μM, 5 days chronic treatment) was 8–10 fold, the “Cell viability, HCT 116 0.5uM 2 days” value ([4]; MTT, 0.5 uM, 2 days) was 49.4 ± 3.2% and the “Reduction of viability (cytotoxicity) of HCT 116 tumor cells” value ([4]; MTT, 0.5 μM, 2 days) was 50%. The “Cell viability, HCT 116 0.5uM 5 days” value ([4]; MTT, 0.5 uM, 5 days) was 60.2 ± 14.4%, the “Reduction of tumor cell viability (HCT 116)” value ([4]; MTT, 0.5 μM, 5 days) was 40% and the “Reduction in viability of cancer cells (HCT 116)” value ([4]; MTT, 5 μM, 2 days) was 90%. The “Cell viability, HCT 116 5uM 2 days” value [4, 9] was 4.4 ± 0.8%, the “Cells survived, HCT 116” value ([4]; MTT, 5 μM, 5 days chronic treatment) was 5% and the IC50 ([4]; MTT, Figure 3C and text, read-out: IC50 (μM), HCT 116) was 0.94 µM. The IC50 ([4]; MTT, supplementary CSV, read-out: IC50 (uM) HCT 116) was 0.9 ± 0.6 µM, the “Cell viability, HCT 116 […] 2 days” value ([4]; MTT, 2 days) was 59.6 ± 2.9% and the “Cell viability, HCT 116 […] 2 days” value [4, 10] was 59.1 ± 0.8%. For the same compound, the “Fold higher concentration needed to reduce nontumorigenic intestinal cell viability by 50%” value ([5]; IC50 HIEC6 versus IC50 HCT 116) was 3.7 fold, the “Cell viability, HIEC6 0.5uM 2 days” value ([5]; MTT, 0.5 uM, 2 days) was 92.5 ± 0.9% and the “Cell viability, HIEC6 0.5uM 5 days” value ([5]; MTT, 0.5 uM, 5 days) was 84.1 ± 4.7%. The “Reduction in viability of healthy cells (HIEC6)” value ([5]; MTT, 5 μM, 2 days) was 60%, the “Cell viability, HIEC6 5uM 2 days” value [5, 9] was 41.2 ± 1.5% and the IC50 ([5]; MTT, Figure 3C and text, read-out: IC50 (μM), HIEC6) was 3.47 µM. For the same compound, the IC50 ([5]; MTT, supplementary CSV, read-out: IC50 (uM) HIEC6) was 3.5 ± 0.6 µM, the “Cell viability, HIEC6 […] 2 days” value ([5]; MTT, 2 days) was 97.8 ± 4.0% and the “Cell viability, HIEC6 […] 2 days” value [5, 10] was 98.8 ± 6.1%. For the same compound, the “Stability in DMEM (Pt(IV) signal in 195Pt NMR)” value [6] was “suffered a marked decrease after 24 h”, the “Cytotoxic effect on colon cancer cells (HT-29)” value [7] was “strong cytotoxic effect” and the “Unresolved DSB / histone H2Ax foci” value [8] was “foci were retained at 48 h”.
